# According to patent publication US20260184710A1, “CASITAS B-LINEAGE LYMPHOMA PROTOONCOGENE B (CBL-B) DEGRADING COMPOUNDS AND ASSOCIATED METHODS OF USE” (Arvinas Operations, Inc., priority 2022, published 2026):
# Columns and labels:
# [1] = molecular target: T1, Cbl-b (Homo sapiens, UniProt Q13191); assay: Cbl-b Degradation Method B (Nano-Glo HiBiT lytic detection); format: cell-based; conditions: Cbl-b-HiBit KI Jurkat Cells, incubated at least 6-24 hours; for DC50: half maximal degradation, read-out: Cbl-b Degredation Method B IC50; for Dmax: read-out: Cbl-b Degredation Method B Dmax (%)
# T1 construct: Cbl-b-HiBit KI Jurkat Cells were purchased from Promega; host or cells: Cbl-b-HiBiT knock-in Jurkat cells
# T1 sequence (Q13191 whole entry): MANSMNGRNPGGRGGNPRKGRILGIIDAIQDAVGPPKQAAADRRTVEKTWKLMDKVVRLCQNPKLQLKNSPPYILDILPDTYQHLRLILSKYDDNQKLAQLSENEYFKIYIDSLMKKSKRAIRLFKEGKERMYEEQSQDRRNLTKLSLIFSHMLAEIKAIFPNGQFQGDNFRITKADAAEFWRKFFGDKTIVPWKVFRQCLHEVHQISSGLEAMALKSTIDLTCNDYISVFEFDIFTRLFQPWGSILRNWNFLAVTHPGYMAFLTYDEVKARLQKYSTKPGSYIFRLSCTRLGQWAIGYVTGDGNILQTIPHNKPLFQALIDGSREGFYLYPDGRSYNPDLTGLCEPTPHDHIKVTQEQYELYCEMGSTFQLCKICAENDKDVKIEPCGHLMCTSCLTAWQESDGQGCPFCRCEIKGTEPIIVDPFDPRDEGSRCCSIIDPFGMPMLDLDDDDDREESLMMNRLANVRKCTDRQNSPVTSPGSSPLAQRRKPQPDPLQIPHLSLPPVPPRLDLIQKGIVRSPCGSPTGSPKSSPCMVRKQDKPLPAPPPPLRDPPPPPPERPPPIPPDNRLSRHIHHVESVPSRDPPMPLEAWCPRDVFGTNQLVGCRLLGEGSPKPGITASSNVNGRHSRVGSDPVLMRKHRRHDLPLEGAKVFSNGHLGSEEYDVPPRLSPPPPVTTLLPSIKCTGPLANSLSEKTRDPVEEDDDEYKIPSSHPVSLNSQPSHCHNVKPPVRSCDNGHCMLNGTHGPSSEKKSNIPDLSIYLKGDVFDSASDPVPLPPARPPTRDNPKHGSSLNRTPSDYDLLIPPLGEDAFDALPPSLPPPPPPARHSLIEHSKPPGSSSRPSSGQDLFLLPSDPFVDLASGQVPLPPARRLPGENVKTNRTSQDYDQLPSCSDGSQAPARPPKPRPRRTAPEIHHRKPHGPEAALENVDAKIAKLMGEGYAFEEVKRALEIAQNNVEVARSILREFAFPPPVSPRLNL
# Procedure, shortened: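 Cbl-b-HiBiT knock-in Jurkat cells (20,000/well) were treated after ~24 h plating with an 11-point 1:3 series for 6-24 h at 37° C. Remaining Cbl-b measured by Nano-Glo HiBiT lytic luminescence. DC50 and Dmax expressed as % of control.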
# [2] = molecular target: T1, Cbl-b; assay: Cbl-b Degradation Method A (FACS, anti-Cbl-b antibody staining); format: cell-based; conditions: Cbl-b-HiBit KI Jurkat Cells, incubated at least 20 hours; for DC50: half maximal degradation, read-out: Cbl-b Degredation Method A IC50; for Dmax: Jurkat, maximum degradation observed, read-out: Cbl-b Degredation Method A Dmax (%)
# Procedure, shortened: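 Cbl-b-HiBit KI Jurkat cells treated with compound for at least 20 h at 37 °C, then fixed, permeabilized and stained with anti-Cbl-b antibody plus anti-rabbit AF488 secondary. Cbl-b levels read by FACS; DC50 and Dmax (percent of control) derived.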
SMILES,DC50 [1] [nM],Dmax ([1]; maximum degradation observed) [%],DC50 [2] [nM],Dmax [2] [%],Cbl-b Degredation Method B Dmax (%) ([1]; maximum degradation observed)
"COc1c(N2CCC(F)(CN3CCC4(CC3)CN(c3cc5c(c(C(F)(F)F)c3)CN(c3cccc(C6(Cc7nncn7C)COC6)c3)C5=O)C4)CC2)ccc2c1CN(C1CCC(=O)NC1=O)C2=O (centres unmarked) [Example 185, 3-{5-[4-fluoro-4-({2-[2-(3-{3-[(4-methyl-4H-1,2,4-triazol-3-yl)methyl]oxetan-3-yl}phenyl)-3-oxo-7-(trifluoromethyl)-2,3-dihydro-1H-isoindol-5-yl]-2,7-diazaspiro[3.5]nonan-7-yl}methyl)piperidin-1-yl]-4-methoxy-1-oxo-2,3-dihydro-1H-isoindol-2-yl}piperidine-2,6-dione]",5 to 50,35 to 70,5 to 50,35 to 70,
"CC1c2nc(N3CCC(O[C@H]4CC[C@H](CN5CCC6(CCN(c7cc8c(c(C(F)(F)F)c7)CN(c7cccc([C@]9(Cc%10nncn%10C)C[C@@H](C#N)C9)c7)C8=O)C6)C5)CC4)CC3)ccc2C(=O)N1C1CCC(=O)NC1=O (some centres unmarked) [Example 179, (1r,3r)-3-[(4-methyl-4H-1,2,4-triazol-3-yl)methyl]-3-{3-[1-oxo-6-(7-{[(1r,4r)-4-({1-[6-(2,6-dioxopiperidin-3-yl)-7-methyl-5-oxo-5H,6H,7H-pyrrolo[3,4-b]pyridin-2-yl]piperidin-4-yl}oxy)cyclohexyl]methyl}-2,7-diazaspiro[4.4]nonan-2-yl)-4-(trifluoromethyl)-2,3-dihydro-1H-isoindol-2-yl]phenyl}cyclobutane-1-carbonitrile]",< 5,35 to 70,5 to 50,35 to 70,
"CC1CN(C[C@H]2CC[C@@H](OC3CCN(c4ccc5c(c4F)CN(C4CCC(=O)NC4=O)C5=O)CC3)CC2)CCN1C[C@H]1CCCN(Cc2cc3c(c(C(F)(F)F)c2)CN(c2cccc(C4(Cc5nncn5C)COC4)c2)C3=O)C1 (stereo partly drawn) [Example 166, 3-[4-fluoro-1-oxo-5-(4-{[(1r,4r)-4-[(3-methyl-4-{[(3S)-1-{[2-(3-{3-[(4-methyl-4H-1,2,4-triazol-3-yl)methyl]oxetan-3-yl}phenyl)-3-oxo-7-(trifluoromethyl)-2,3-dihydro-1H-isoindol-5-yl]methyl}piperidin-3-yl]methyl}piperazin-1-yl)methyl]cyclohexyl]oxy}piperidin-1-yl)-2,3-dihydro-1H-isoindol-2-yl]piperidine-2,6-dione]",< 5,> 70,< 5,> 70,
"Cn1cnnc1CC1(c2cccc(N3Cc4c(cc(CN5CCC[C@H](CN6CCC(CN7CCC(CN8CCN(c9ccc%10c(c9F)CN(C9CCC(=O)NC9=O)C%10=O)CC8)CC7)CC6)C5)cc4C(F)(F)F)C3=O)c2)COC1 (stereo partly drawn) [Example 74, 3-{4-fluoro-5-[4-({1-[(1-{[(3R)-1-{[2-(3-{3-[(4-methyl-4H-1,2,4-triazol-3-yl)methyl]oxetan-3-yl}phenyl)-3-oxo-7-(trifluoromethyl)-2,3-dihydro-1H-isoindol-5-yl]methyl}piperidin-3-yl]methyl}piperidin-4-yl)methyl]piperidin-4-yl}methyl)piperazin-1-yl]-1-oxo-2,3-dihydro-1H-isoindol-2-yl}piperidine-2,6-dione]",< 5,> 70,5 to 50,> 70,
"Cn1cnnc1CC1(c2cccc(N3Cc4c(cc(N5CC6(CCN(c7cc8c(cc7F)C(=O)N(C7CCC(=O)NC7=O)C8=O)CC6)C5)cc4C(F)(F)F)C3=O)c2)COC1 (centres unmarked) [Example 116, 2-(2,6-dioxopiperidin-3-yl)-5-fluoro-6-{2-[2-(3-{3-[(4-methyl-4H-1,2,4-triazol-3-yl)methyl]oxetan-3-yl}phenyl)-3-oxo-7-(trifluoromethyl)-2,3-dihydro-1H-isoindol-5-yl]-2,7-diazaspiro[3.5]nonan-7-yl}-2,3-dihydro-1H-isoindole-1,3-dione]",> 500,,> 500,,

# Further lines, results first:
DC50 [1] [nM],Dmax ([1]; maximum degradation observed) [%],DC50 [2] [nM],Dmax [2] [%],Cbl-b Degredation Method B Dmax (%) ([1]; maximum degradation observed),SMILES
< 5,35 to 70,5 to 50,35 to 70,,"Cn1cnnc1CC1(c2cccc(N3Cc4c(cc(CN5CCN(C[C@H]6CC[C@H](OC7CCN(c8ccc9c(n8)CN(C8CCC(=O)NC8=O)C9=O)CC7)CC6)CC5)cc4C(F)(F)F)C3=O)c2)COC1 (some centres unmarked) [Example 112, 3-[5-oxo-2-(4-{[(1r,4r)-4-[(4-{[2-(3-{3-[(4-methyl-4H-1,2,4-triazol-3-yl)methyl]oxetan-3-yl}phenyl)-3-oxo-7-(trifluoromethyl)-2,3-dihydro-1H-isoindol-5-yl]methyl}piperazin-1-yl)methyl]cyclohexyl]oxy}piperidin-1-yl)-5H,6H,7H-pyrrolo[3,4-b]pyridin-6-yl]piperidine-2,6-dione]"
< 5,35 to 70,5 to 50,35 to 70,,"CC1c2nc(N3CCC(O[C@H]4CC[C@H](CN5C[C@H]6C[C@@H]5CN6Cc5cc6c(c(C(F)(F)F)c5)CN(c5cccc([C@]7(Cc8nncn8C)C[C@@H](C#N)C7)c5)C6=O)CC4)CC3)ccc2C(=O)N1C1CCC(=O)NC1=O (stereo partly drawn) [Example 217, (1r,3r)-3-[(4-methyl-4H-1,2,4-triazol-3-yl)methyl]-3-[3-(1-oxo-6-{[(1R,4R)-5-{[(1r,4r)-4-({1-[6-(2,6-dioxopiperidin-3-yl)-7-methyl-5-oxo-5H,6H,7H-pyrrolo[3,4-b]pyridin-2-yl]piperidin-4-yl}oxy)cyclohexyl]methyl}-2,5-diazabicyclo[2.2.1]heptan-2-yl]methyl}-4-(trifluoromethyl)-2,3-dihydro-1H-isoindol-2-yl)phenyl]cyclobutane-1-carbonitrile]"
5 to 50,,50 to 500,> 70,C (C ≤ 35),"CC(C)n1c(=O)n(C2CCC(=O)NC2=O)c2cccc(N3CCC(O[C@H]4CC[C@H](CN5CCN(Cc6cc7c(c(C(F)(F)F)c6)CN(c6cccc([C@]8(Cc9nncn9C)C[C@@H](C#N)C8)c6)C7=O)C6(COC6)C5)CC4)CC3)c21 (some centres unmarked) [Example 322, (1r,3r)-3-[(4-methyl-4H-1,2,4-triazol-3-yl)methyl]-3-(3-{1-oxo-6-[(8-{[(1r,4r)-4-({1-[1-(2,6-dioxopiperidin-3-yl)-2-oxo-3-(propan-2-yl)-2,3-dihydro-1H-1,3-benzodiazol-4-yl]piperidin-4-yl}oxy)cyclohexyl]methyl}-2-oxa-5,8-diazaspiro[3.5]nonan-5-yl)methyl]-4-(trifluoromethyl)-2,3-dihydro-1H-isoindol-2-yl}phenyl)cyclobutane-1-carbonitrile]"
> 500,,50 to 500,,,"Cn1cnnc1CC1(c2cccc(N3Cc4c(cc(CN5CCC(COCCOc6ccc7c(c6)C(=O)N(C6CCC(=O)NC6=O)C7=O)CC5)cc4C(F)(F)F)C3=O)c2)COC1 (centres unmarked) [Example 87, 2-(2,6-dioxopiperidin-3-yl)-5-(2-((1-((2-(3-(3-((4-methyl-4H-1,2,4-triazol-3-yl)methyl)oxetan-3-yl)phenyl)-3-oxo-7-(trifluoromethyl)isoindolin-5-yl)methyl)piperidin-4-yl)methoxy)ethoxy)isoindoline-1,3-dione]"
